According to patent US20240247069A1, “FGFR3 BINDING MOLECULES AND METHODS OF USE THEREOF” (Regeneron Pharmaceuticals, Inc., priority 2023, published 2024):

Key:
Type in all cases: cell-based
Settings in all cases: FGF1/heparin, 72 hours
[1] = tested on: BaF3 cells expressing FGFR3 V557M; assay: BaF3 cell proliferation, FGFR3 V557M
Excerpt: (§1) cDNA expressing FGFR3 mutants (S249C, S248C, Y375C, V555M, V555L, S249C+V555M, or S249C+V555L) were synthesized and cloned into pLVX Lenti-viral vector (Thermo Fisher). Viral particles were generated by lipofectamine transfection of LentiX 293T cells using Lenti-X packaging single shots following manufacturer's protocol (Clontech/Takara) and concentrated using Lenti-X concentrator and titer determined using Lenti-X p24 rapid titer kit (Clontech/Takara). BaF3 cells were transduced with virus at ˜0.3 MOI.
(§2) For cell proliferation assays, engineered BaF3/hFGFR3 cells grown in complete medium were washed and plated in IL-3-free culture media±5 μg/ml heparin and 1 nM human FGF1. Cells were plated out at 1×10^5 cells/well into 96-well plates, followed by the addition of 1:3 serially diluted antibodies as indicated in figures. After addition of antibodies, cells were incubated at 37° C. for 72 h followed by the addition of CellTiter-Glo™ (Promega) reagent. The luminescent signal was detected by Envision plate reader (PerkinElmer). Data was analyzed using Prism software (GraphPad). […]

[2] = tested on: BaF3 cells expressing FGFR3 S249C+V557M; assay: BaF3 cell proliferation, FGFR3 S249C+V557M
Excerpt: as §1, §2

[3] = tested on: BaF3 cells expressing FGFR3 S249C+V557L; assay: BaF3 cell proliferation, FGFR3 S249C+V557L
Excerpt: as §1, §2

[4] = tested on: BaF3 cells expressing FGFR3 V557L; assay: BaF3 cell proliferation, FGFR3 V557L
Excerpt: as §1, §2

AZD4547 [reference compound]
ineffective: effect on growth of BaF3 cells expressing FGFR3 V557M [1] | effect on growth of BaF3 cells expressing FGFR3 S249C+V557M [2] | effect on growth of BaF3 cells expressing FGFR3 S249C+V557L [3] | effect on growth of BaF3 cells expressing FGFR3 V557L [4]
